According to patent US20260035382A1, “COMPOUNDS AS SUMO ACTIVATING ENZYME INHIBITORS” (WIGEN BIOMEDICINE TECHNOLOGY (SHANGHAI) CO., LTD., priority 2022, published 2026):
Like-named read-outs stand apart in the source and are kept apart here.

Biological target: SAE (Homo sapiens (Human), UniProt Q9UBT2)
Assay: In vitro inhibitory activity assay against SAE (SUMO-2/3 immunofluorescence in HCT116 cells)
Assay type: cell-based
Conditions: 6 h incubation, read-out: SUMO IF IC50
How it was run: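 HCT116 cells treated with compounds for 6 h at 37 °C, then fixed, permeabilized and immunostained for SUMO-2/3 with FITC secondary detection. Fluorescence compared with DMSO control to give inhibition rate and IC50.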

SAE, sequence (Q9UBT2 whole entry): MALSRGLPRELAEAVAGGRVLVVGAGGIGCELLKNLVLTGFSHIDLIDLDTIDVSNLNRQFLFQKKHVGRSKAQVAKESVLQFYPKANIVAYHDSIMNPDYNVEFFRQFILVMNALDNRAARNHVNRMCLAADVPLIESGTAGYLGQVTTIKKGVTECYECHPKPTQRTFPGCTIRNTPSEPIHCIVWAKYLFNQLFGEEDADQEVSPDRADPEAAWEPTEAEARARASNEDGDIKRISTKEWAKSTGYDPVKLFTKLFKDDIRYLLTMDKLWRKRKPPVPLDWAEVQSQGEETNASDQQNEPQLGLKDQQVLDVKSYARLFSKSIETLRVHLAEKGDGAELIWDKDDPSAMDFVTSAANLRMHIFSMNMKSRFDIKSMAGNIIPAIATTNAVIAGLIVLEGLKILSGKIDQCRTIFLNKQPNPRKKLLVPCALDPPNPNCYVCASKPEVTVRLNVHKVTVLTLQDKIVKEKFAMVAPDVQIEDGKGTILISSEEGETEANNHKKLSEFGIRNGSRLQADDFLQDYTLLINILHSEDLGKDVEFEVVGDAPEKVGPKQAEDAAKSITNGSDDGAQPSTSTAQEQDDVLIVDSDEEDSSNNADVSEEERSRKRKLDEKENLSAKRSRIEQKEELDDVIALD
SAE, sequence (Q9UBE0 whole entry partner): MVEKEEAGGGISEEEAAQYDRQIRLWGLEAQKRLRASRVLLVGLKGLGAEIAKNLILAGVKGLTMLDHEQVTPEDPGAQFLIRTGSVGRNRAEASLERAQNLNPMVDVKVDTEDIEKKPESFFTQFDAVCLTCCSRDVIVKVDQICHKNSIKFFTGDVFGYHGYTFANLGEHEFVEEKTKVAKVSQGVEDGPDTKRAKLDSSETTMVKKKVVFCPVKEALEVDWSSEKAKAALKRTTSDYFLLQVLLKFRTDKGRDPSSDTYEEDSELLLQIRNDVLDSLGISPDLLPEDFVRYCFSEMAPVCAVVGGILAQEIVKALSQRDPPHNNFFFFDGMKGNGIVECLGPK

NS(=O)(=O)OC[C@H]1C[C@@H](Nc2ncncc2C(=O)c2cc3c(s2)CCC[C@@]32OCCc3ccccc32)C[C@@H]1O [Compound 245]
IC50 (class symbols): > 200 nM

NS(=O)(=O)OC[C@H]1C[C@@H](Nc2ncncc2C(=O)c2cc3c(s2)CCC[C@]32OCCc3ccccc32)C[C@@H]1O [Compound 246]
IC50 (class symbols): 50 to 200 nM

NS(=O)(=O)OC[C@H]1C[C@@H](Nc2ncncc2C(=O)c2cc3c(s2)CCCC32OCCc3ccc(F)cc32)C[C@@H]1O (some centres unmarked) [Compound 247]
IC50 (class symbols): 50 to 200 nM

NS(=O)(=O)OC[C@H]1C[C@@H](Nc2ncncc2C(=O)c2cc3c(s2)CCC[C@@]32OCCc3ccc(F)cc32)C[C@@H]1O [Compound 248]
IC50 (class symbols): > 200 nM

NS(=O)(=O)OC[C@H]1C[C@@H](Nc2ncncc2C(=O)c2cc3c(s2)CCC[C@]32OCCc3ccc(F)cc32)C[C@@H]1O [Compound 249]
IC50 (class symbols): ≤ 50 nM

N#Cc1ccc2c(c1)C1(CCCc3sc(C(=O)c4cncnc4N[C@@H]4C[C@H](COS(N)(=O)=O)[C@@H](O)C4)cc31)OCC2 (some centres unmarked) [Compound 250]
IC50 (class symbols): 50 to 200 nM

N#Cc1ccc2c(c1)[C@]1(CCCc3sc(C(=O)c4cncnc4N[C@@H]4C[C@H](COS(N)(=O)=O)[C@@H](O)C4)cc31)OCC2 [Compound 251]
IC50 (class symbols): > 200 nM

N#Cc1ccc2c(c1)[C@@]1(CCCc3sc(C(=O)c4cncnc4N[C@@H]4C[C@H](COS(N)(=O)=O)[C@@H](O)C4)cc31)OCC2 [Compound 252]
IC50 (class symbols): ≤ 50 nM

CN1Cc2sc(C(=O)c3cncnc3N[C@@H]3C[C@H](COS(N)(=O)=O)[C@@H](O)C3)cc2C2(C1)OCCc1ccccc12 (some centres unmarked) [Compound 253]
IC50 (class symbols): 50 to 200 nM

CN1Cc2sc(C(=O)c3cncnc3N[C@@H]3C[C@H](COS(N)(=O)=O)[C@@H](O)C3)cc2[C@@]2(C1)OCCc1ccccc12 [Compound 254]
IC50 (class symbols): > 200 nM

CN1Cc2sc(C(=O)c3cncnc3N[C@@H]3C[C@H](COS(N)(=O)=O)[C@@H](O)C3)cc2[C@]2(C1)OCCc1ccccc12 [Compound 255]
IC50 (class symbols): 50 to 200 nM

CN1Cc2sc(C(=O)c3cncnc3N[C@@H]3C[C@H](COS(N)(=O)=O)[C@@H](O)C3)cc2C2(C1)OCCc1ccc(F)cc12 (some centres unmarked) [Compound 256]
IC50 (class symbols): 50 to 200 nM

CN1Cc2sc(C(=O)c3cncnc3N[C@@H]3C[C@H](COS(N)(=O)=O)[C@@H](O)C3)cc2[C@@]2(C1)OCCc1ccc(F)cc12 [Compound 257]
IC50 (class symbols): > 200 nM

CN1Cc2sc(C(=O)c3cncnc3N[C@@H]3C[C@H](COS(N)(=O)=O)[C@@H](O)C3)cc2[C@]2(C1)OCCc1ccc(F)cc12 [Compound 258]
IC50 (class symbols): ≤ 50 nM

CN1Cc2sc(C(=O)c3cncnc3N[C@@H]3C[C@H](COS(N)(=O)=O)[C@@H](O)C3)cc2C2(C1)OCCc1ccc(Cl)cc12 (some centres unmarked) [Compound 259]
IC50 (class symbols): ≤ 50 nM

CN1Cc2sc(C(=O)c3cncnc3N[C@@H]3C[C@H](COS(N)(=O)=O)[C@@H](O)C3)cc2[C@@]2(C1)OCCc1ccc(Cl)cc12 [Compound 260]
IC50 (class symbols): > 200 nM

CN1Cc2sc(C(=O)c3cncnc3N[C@@H]3C[C@H](COS(N)(=O)=O)[C@@H](O)C3)cc2[C@]2(C1)OCCc1ccc(Cl)cc12 [Compound 261]
IC50 (class symbols): ≤ 50 nM

CCN1Cc2sc(C(=O)c3cncnc3N[C@@H]3C[C@H](COS(N)(=O)=O)[C@@H](O)C3)cc2C2(C1)OCCc1ccc(F)cc12 (some centres unmarked) [Compound 262]
IC50 (class symbols): 50 to 200 nM

CCN1Cc2sc(C(=O)c3cncnc3N[C@@H]3C[C@H](COS(N)(=O)=O)[C@@H](O)C3)cc2[C@@]2(C1)OCCc1ccc(F)cc12 [Compound 263]
IC50 (class symbols): > 200 nM

CCN1Cc2sc(C(=O)c3cncnc3N[C@@H]3C[C@H](COS(N)(=O)=O)[C@@H](O)C3)cc2[C@]2(C1)OCCc1ccc(F)cc12 [Compound 264]
IC50 (class symbols): ≤ 50 nM

CCN1Cc2sc(C(=O)c3cncnc3N[C@@H]3C[C@H](COS(N)(=O)=O)[C@@H](O)C3)cc2C2(C1)OCCc1ccc(Cl)cc12 (some centres unmarked) [Compound 265]
IC50 (class symbols): ≤ 50 nM

CCN1Cc2sc(C(=O)c3cncnc3N[C@@H]3C[C@H](COS(N)(=O)=O)[C@@H](O)C3)cc2[C@@]2(C1)OCCc1ccc(Cl)cc12 [Compound 266]
IC50 (class symbols): > 200 nM

CCN1Cc2sc(C(=O)c3cncnc3N[C@@H]3C[C@H](COS(N)(=O)=O)[C@@H](O)C3)cc2[C@]2(C1)OCCc1ccc(Cl)cc12 [Compound 267]
IC50 (class symbols): ≤ 50 nM

CC(C)N1Cc2sc(C(=O)c3cncnc3N[C@@H]3C[C@H](COS(N)(=O)=O)[C@@H](O)C3)cc2C2(C1)OCCc1ccc(F)cc12 (some centres unmarked) [Compound 268]
IC50 (class symbols): 50 to 200 nM

CC(C)N1Cc2sc(C(=O)c3cncnc3N[C@@H]3C[C@H](COS(N)(=O)=O)[C@@H](O)C3)cc2[C@@]2(C1)OCCc1ccc(F)cc12 [Compound 269]
IC50 (class symbols): > 200 nM

CC(C)N1Cc2sc(C(=O)c3cncnc3N[C@@H]3C[C@H](COS(N)(=O)=O)[C@@H](O)C3)cc2[C@]2(C1)OCCc1ccc(F)cc12 [Compound 270]
IC50 (class symbols): ≤ 50 nM

CC(C)N1Cc2sc(C(=O)c3cncnc3N[C@@H]3C[C@H](COS(N)(=O)=O)[C@@H](O)C3)cc2C2(C1)OCCc1ccc(Cl)cc12 (some centres unmarked) [Compound 271]
IC50 (class symbols): 50 to 200 nM

CC(C)N1Cc2sc(C(=O)c3cncnc3N[C@@H]3C[C@H](COS(N)(=O)=O)[C@@H](O)C3)cc2[C@@]2(C1)OCCc1ccc(Cl)cc12 [Compound 272]
IC50 (class symbols): > 200 nM

CC(C)N1Cc2sc(C(=O)c3cncnc3N[C@@H]3C[C@H](COS(N)(=O)=O)[C@@H](O)C3)cc2[C@]2(C1)OCCc1ccc(Cl)cc12 [Compound 273]
IC50 (class symbols): ≤ 50 nM

NS(=O)(=O)OC[C@H]1C[C@@H](Nc2ncncc2C(=O)c2cc3c(s2)CN(C2CC2)C[C@@]32OCCc3ccc(F)cc32)C[C@@H]1O [Compound 275]
IC50 (class symbols): > 200 nM

NS(=O)(=O)OC[C@H]1C[C@@H](Nc2ncncc2C(=O)c2cc3c(s2)CN(C2CC2)C[C@]32OCCc3ccc(F)cc32)C[C@@H]1O [Compound 276]
IC50 (class symbols): ≤ 50 nM

NS(=O)(=O)OC[C@H]1C[C@@H](Nc2ncncc2C(=O)c2cc3c(s2)CN(C2CC2)CC32OCCc3ccc(Cl)cc32)C[C@@H]1O (some centres unmarked) [Compound 277]
IC50 (class symbols): 50 to 200 nM

NS(=O)(=O)OC[C@H]1C[C@@H](Nc2ncncc2C(=O)c2cc3c(s2)CN(C2CC2)C[C@@]32OCCc3ccc(Cl)cc32)C[C@@H]1O [Compound 278]
IC50 (class symbols): > 200 nM

NS(=O)(=O)OC[C@H]1C[C@@H](Nc2ncncc2C(=O)c2cc3c(s2)CN(C2CC2)C[C@]32OCCc3ccc(Cl)cc32)C[C@@H]1O [Compound 279]
IC50 (class symbols): ≤ 50 nM

NS(=O)(=O)OC[C@H]1C[C@@H](Nc2ncncc2C(=O)c2cc3c(s2)CCC32OCCc3ccccc32)C[C@@H]1O (some centres unmarked) [Compound 280]
IC50 (class symbols): > 200 nM

NS(=O)(=O)OC[C@H]1C[C@@H](Nc2ncncc2C(=O)c2cc3c(s2)CC[C@@]32OCCc3ccccc32)C[C@@H]1O [Compound 281]
IC50 (class symbols): > 200 nM

NS(=O)(=O)OC[C@H]1C[C@@H](Nc2ncncc2C(=O)c2cc3c(s2)CC[C@]32OCCc3ccccc32)C[C@@H]1O [Compound 282]
IC50 (class symbols): 50 to 200 nM

NS(=O)(=O)OC[C@H]1C[C@@H](Nc2ncncc2C(=O)c2cc3c(s2)CCC32OCCc3ccc(F)cc32)C[C@@H]1O (some centres unmarked) [Compound 283]
IC50 (class symbols): 50 to 200 nM

NS(=O)(=O)OC[C@H]1C[C@@H](Nc2ncncc2C(=O)c2cc3c(s2)CC[C@@]32OCCc3ccc(F)cc32)C[C@@H]1O [Compound 284]
IC50 (class symbols): > 200 nM

NS(=O)(=O)OC[C@H]1C[C@@H](Nc2ncncc2C(=O)c2cc3c(s2)CC[C@]32OCCc3ccc(F)cc32)C[C@@H]1O [Compound 285]
IC50 (class symbols): 50 to 200 nM

N#Cc1ccc2c(c1)C1(CCc3sc(C(=O)c4cncnc4N[C@@H]4C[C@H](COS(N)(=O)=O)[C@@H](O)C4)cc31)OCC2 (some centres unmarked) [Compound 286]
IC50 (class symbols): 50 to 200 nM

N#Cc1ccc2c(c1)[C@]1(CCc3sc(C(=O)c4cncnc4N[C@@H]4C[C@H](COS(N)(=O)=O)[C@@H](O)C4)cc31)OCC2 [Compound 287]
IC50 (class symbols): > 200 nM

N#Cc1ccc2c(c1)[C@@]1(CCc3sc(C(=O)c4cncnc4N[C@@H]4C[C@H](COS(N)(=O)=O)[C@@H](O)C4)cc31)OCC2 [Compound 288]
IC50 (class symbols): ≤ 50 nM

NS(=O)(=O)OC[C@H]1C[C@@H](Nc2ncncc2C(=O)c2cc3c(s2)C=CC32OCCc3ccccc32)C[C@@H]1O (some centres unmarked) [Compound 289]
IC50 (class symbols): 50 to 200 nM

NS(=O)(=O)OC[C@H]1C[C@@H](Nc2ncncc2C(=O)c2cc3c(s2)C=C[C@@]32OCCc3ccccc32)C[C@@H]1O [Compound 290]
IC50 (class symbols): > 200 nM

NS(=O)(=O)OC[C@H]1C[C@@H](Nc2ncncc2C(=O)c2cc3c(s2)C=C[C@]32OCCc3ccccc32)C[C@@H]1O [Compound 291]
IC50 (class symbols): 50 to 200 nM

NS(=O)(=O)OC[C@H]1C[C@@H](Nc2ncncc2C(=O)c2cc3c(s2)C=CC32OCCc3ccc(F)cc32)C[C@@H]1O (some centres unmarked) [Compound 292]
IC50 (class symbols): 50 to 200 nM

NS(=O)(=O)OC[C@H]1C[C@@H](Nc2ncncc2C(=O)c2cc3c(s2)C=C[C@@]32OCCc3ccc(F)cc32)C[C@@H]1O [Compound 293]
IC50 (class symbols): > 200 nM

NS(=O)(=O)OC[C@H]1C[C@@H](Nc2ncncc2C(=O)c2cc3c(s2)C=C[C@]32OCCc3ccc(F)cc32)C[C@@H]1O [Compound 294]
IC50 (class symbols): ≤ 50 nM

NS(=O)(=O)OC[C@H]1C[C@@H](Nc2ncncc2C(=O)c2cc3c(s2)C=CC32OCCc3ccc(Cl)cc32)C[C@@H]1O (some centres unmarked) [Compound 295]
IC50 (class symbols): ≤ 50 nM

NS(=O)(=O)OC[C@H]1C[C@@H](Nc2ncncc2C(=O)c2cc3c(s2)C=C[C@@]32OCCc3ccc(Cl)cc32)C[C@@H]1O [Compound 296]
IC50 (class symbols): > 200 nM

NS(=O)(=O)OC[C@H]1C[C@@H](Nc2ncncc2C(=O)c2cc3c(s2)C=C[C@]32OCCc3ccc(Cl)cc32)C[C@@H]1O [Compound 297]
IC50 (class symbols): ≤ 50 nM

N#Cc1ccc2c(c1)C1(C=Cc3sc(C(=O)c4cncnc4N[C@@H]4C[C@H](COS(N)(=O)=O)[C@@H](O)C4)cc31)OCC2 (some centres unmarked) [Compound 298]
IC50 (class symbols): 50 to 200 nM

N#Cc1ccc2c(c1)[C@]1(C=Cc3sc(C(=O)c4cncnc4N[C@@H]4C[C@H](COS(N)(=O)=O)[C@@H](O)C4)cc31)OCC2 [Compound 299]
IC50 (class symbols): > 200 nM

N#Cc1ccc2c(c1)[C@@]1(C=Cc3sc(C(=O)c4cncnc4N[C@@H]4C[C@H](COS(N)(=O)=O)[C@@H](O)C4)cc31)OCC2 [Compound 300]
IC50 (class symbols): ≤ 50 nM

Cc1sc(C(=O)c2cncnc2N[C@@H]2C[C@H](COS(N)(=O)=O)[C@@H](O)C2)cc1[C@@H]1NCCc2ccc(Cl)cc21 [TAK-981, reference compound]
IC50 (numeric values): 53.2 nM
